Results on 18 compounds are retold here after ChEMBL document CHEMBL1123410, “Selective thromboxane synthetase inhibitors. 2. 3-(1H-imidazol-1-ylmethyl)-2-methyl-1H-indole-1-propanoic acid and analogues” (J Med Chem, 1986).

Assay [1] concerns the target T1, Thromboxane-A synthase (Homo sapiens, UniProt P24557).
T1 sequence (P24557 whole entry): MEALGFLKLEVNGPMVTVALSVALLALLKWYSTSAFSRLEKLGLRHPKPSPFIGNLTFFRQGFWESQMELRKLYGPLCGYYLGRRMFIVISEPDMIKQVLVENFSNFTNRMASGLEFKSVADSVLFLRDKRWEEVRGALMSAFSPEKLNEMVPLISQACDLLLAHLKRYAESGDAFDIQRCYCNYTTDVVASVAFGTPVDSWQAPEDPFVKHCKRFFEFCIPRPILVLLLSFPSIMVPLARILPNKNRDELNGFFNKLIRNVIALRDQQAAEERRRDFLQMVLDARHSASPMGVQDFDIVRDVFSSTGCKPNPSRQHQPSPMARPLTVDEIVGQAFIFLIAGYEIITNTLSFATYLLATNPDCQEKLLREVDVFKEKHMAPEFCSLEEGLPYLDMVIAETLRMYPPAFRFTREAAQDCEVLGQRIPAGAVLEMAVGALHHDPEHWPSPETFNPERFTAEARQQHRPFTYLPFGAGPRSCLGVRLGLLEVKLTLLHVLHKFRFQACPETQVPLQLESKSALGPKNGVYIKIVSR
As to the kind of experiment: Inhibition of TXA2 synthetase from human platelets.

Assay [2] concerns the target T2, Cytochrome P450 11B1, mitochondrial (Rattus norvegicus, UniProt P15393).
T2 sequence (P15393 whole entry): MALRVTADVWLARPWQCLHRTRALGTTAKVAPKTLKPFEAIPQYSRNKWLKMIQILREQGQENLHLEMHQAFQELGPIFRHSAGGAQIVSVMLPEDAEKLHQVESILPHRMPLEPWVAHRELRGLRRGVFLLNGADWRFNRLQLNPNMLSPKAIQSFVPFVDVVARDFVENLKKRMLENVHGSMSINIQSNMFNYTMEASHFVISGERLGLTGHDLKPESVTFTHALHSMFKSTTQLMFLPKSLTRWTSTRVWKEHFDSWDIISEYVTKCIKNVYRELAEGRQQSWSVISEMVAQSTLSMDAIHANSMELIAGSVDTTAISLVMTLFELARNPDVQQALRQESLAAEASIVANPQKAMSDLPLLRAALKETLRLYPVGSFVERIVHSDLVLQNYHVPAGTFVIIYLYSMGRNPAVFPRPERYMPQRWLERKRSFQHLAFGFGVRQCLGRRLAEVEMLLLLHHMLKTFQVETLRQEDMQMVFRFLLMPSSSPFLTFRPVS
As to the kind of experiment: Inhibition of 11 beta-hydroxylase from rat adrenal gland. Format: tissue-based.

The target of assay [3] is T3, Prostaglandin G/H synthase (cyclooxygenase) (Ovis aries, UniProt P05979+P79208).
T3 sequence (P05979 whole entry): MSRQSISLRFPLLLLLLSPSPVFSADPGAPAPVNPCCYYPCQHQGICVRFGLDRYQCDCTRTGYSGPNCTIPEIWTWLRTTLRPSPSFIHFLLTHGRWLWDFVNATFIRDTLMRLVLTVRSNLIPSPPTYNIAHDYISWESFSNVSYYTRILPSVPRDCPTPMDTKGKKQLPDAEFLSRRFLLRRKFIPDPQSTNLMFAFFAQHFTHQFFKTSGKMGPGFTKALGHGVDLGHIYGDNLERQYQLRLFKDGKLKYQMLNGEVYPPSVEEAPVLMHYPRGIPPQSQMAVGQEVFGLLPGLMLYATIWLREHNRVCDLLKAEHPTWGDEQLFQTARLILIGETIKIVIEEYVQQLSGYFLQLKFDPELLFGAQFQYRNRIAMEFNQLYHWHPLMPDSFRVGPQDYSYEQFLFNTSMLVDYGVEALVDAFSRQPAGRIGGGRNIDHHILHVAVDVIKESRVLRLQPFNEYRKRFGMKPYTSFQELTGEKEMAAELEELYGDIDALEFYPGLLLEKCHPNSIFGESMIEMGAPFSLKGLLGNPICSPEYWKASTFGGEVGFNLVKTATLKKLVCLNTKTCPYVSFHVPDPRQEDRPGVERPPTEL
T3 sequence (P79208 whole entry): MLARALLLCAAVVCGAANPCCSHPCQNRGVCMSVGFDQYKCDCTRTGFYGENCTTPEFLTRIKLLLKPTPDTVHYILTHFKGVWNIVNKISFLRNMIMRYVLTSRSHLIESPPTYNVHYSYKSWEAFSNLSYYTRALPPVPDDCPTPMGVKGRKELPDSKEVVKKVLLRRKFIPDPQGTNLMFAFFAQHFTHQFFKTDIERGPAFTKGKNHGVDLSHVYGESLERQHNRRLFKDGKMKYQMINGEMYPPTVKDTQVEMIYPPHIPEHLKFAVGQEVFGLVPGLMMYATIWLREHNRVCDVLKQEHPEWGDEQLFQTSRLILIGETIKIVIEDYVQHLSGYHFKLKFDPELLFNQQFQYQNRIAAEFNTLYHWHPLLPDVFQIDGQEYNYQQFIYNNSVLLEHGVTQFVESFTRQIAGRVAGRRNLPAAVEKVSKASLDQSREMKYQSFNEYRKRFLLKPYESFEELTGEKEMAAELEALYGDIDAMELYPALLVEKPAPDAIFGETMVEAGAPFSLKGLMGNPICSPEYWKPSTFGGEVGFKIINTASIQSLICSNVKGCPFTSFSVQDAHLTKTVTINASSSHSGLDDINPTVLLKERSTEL
Nature of the assay: Inhibition of Prostaglandin G/H synthase from ram seminal vesicle microsomes.

SMILES strings stand for the structures.

What is called IC50 is the concentration needed to halve the response being measured. Lower therefore signals higher potency. Regarding `CC(C)c1c(Cn2ccnc2)c2ccccc2n1CCC(=O)O`, the IC50 in assay [1] was 8.2 nM; in assay [2], more than 10 µM.

Consider `O=C(O)CCn1c(C2CC2)c(Cn2ccnc2)c2ccccc21`, for which half-maximal inhibition in assay [1] (IC50) was put at 4.9 nM. Same read-out and setting: the same measure for `FC(F)(F)c1ccc2c(Cn3ccnc3)c[nH]c2c1`: 4600 nM; for `Cc1c(Cn2ccnc2)c2ccccc2n1/C=C/C(=O)O`: 70 nM. With `CCn1cc(Cn2ccnc2)c2ccccc21`, the IC50 in assay [1] is 8.4 nM; in assay [3], more than 0.0001 M; in assay [2] it was 10 µM.

As to `c1ccc2c(Cn3ccnc3)c[nH]c2c1`, the IC50 is 25 nM in assay [1], more than 0.001 M in assay [3] and 10 µM in assay [2]. With `O=C(O)CCn1cc(Cn2ccnc2)c2ccc(C(F)(F)F)cc21`, the midpoint of inhibition in assay [1], the IC50, lay at 10 nM. Same read-out and setting: the same measure for `O=C(O)CCn1cc(Cn2ccnc2)c2cc(Br)ccc21`: 12 nM; for `Clc1ccc2[nH]cc(Cn3ccnc3)c2c1`: 3000 nM; for `CN(C)c1ccc2c(c1)c(Cn1ccnc1)cn2CCC(=O)O`: 82 nM. With `O=C(O)Cn1cc(Cn2ccnc2)c2ccccc21`, the IC50 is 30 nM in assay [1] and more than 0.0001 M in assay [3]. On to `O=C(O)CCn1cc(Cn2ccnc2)c2ccccc21`, for which the IC50 in assay [1] was 19 nM; in assay [3] it was more than 0.0001 M; in assay [2], more than 10 µM. As to `CC(C)c1[nH]c2ccccc2c1Cn1ccnc1`, the IC50 in assay [3] was more than 0.0001 M.

Turning to `Cc1ccc2c(c1)c(Cn1ccnc1)cn2CCC(=O)O`, the IC50 in assay [1] was 42 nM. In the case of `O=C(O)CCn1cc(Cn2ccnc2)c2cc(Cl)ccc21`, the IC50 in assay [1] is 21 nM.

Compound `COc1ccc2c(c1)c(Cn1ccnc1)cn2CCC(=O)O` returned an IC50 in assay [1] of 43 nM. On to `Cc1c(Cn2ccnc2)c2ccccc2n1CCC(=O)O` [DAZMEGREL], for which the IC50 in assay [1] was 28 nM; in assay [3] it was more than 0.0001 M; in assay [2], more than 100 µM. Consider `O=C(O)c1ccc(OCCn2ccnc2)cc1` [DAZOXIBEN], for which, in assay [2], the IC50 was more than 100 µM.
